Assays:
Type in all cases: functional
Candida albicans [1] = experiment: Growth inhibition of Candida albicans ATCC 10231 at 100 ug/ml by cup-plate method relative to control; conditions: read-out: GI
Candida albicans [2] = experiment: Antifungal activity against Candida albicans ATCC 10231 at 100 ug/ml by cup-plate method; conditions: read-out: DIZ
Staphylococcus aureus [3] = experiment: Growth inhibition of Staphylococcus aureus […] at 100 ug/ml by cup-plate method relative to control; conditions: read-out: GI
Escherichia coli = experiment: Antibacterial activity against Escherichia coli […] at 100 ug/ml by cup-plate method; conditions: read-out: DIZ
Staphylococcus aureus [4] = experiment: Antibacterial activity against Staphylococcus aureus […] at 100 ug/ml by cup-plate method; conditions: read-out: DIZ

SMILES	inhibition of growth at 100 µg/mL (Candida albicans [1]) [%]	zone of inhibition at 100 µg/mL (Candida albicans [2]) [mm]	inhibition of growth at 100 µg/mL (Staphylococcus aureus [3]) [%]	zone of inhibition at 100 µg/mL (Escherichia coli) [mm]	zone of inhibition at 100 µg/mL (Staphylococcus aureus [4]) [mm]
NNC(=O)c1cc2ccccc2oc1=O	40	8	40	9	10
COc1ccccc1/C=N/c1nnc(-c2cc3ccccc3oc2=O)o1	65	13	56	15	14
COc1cccc(/C=N/c2nnc(-c3cc4ccccc4oc3=O)o2)c1	70	14	56	15	14
O=c1oc2ccccc2cc1-c1nnc(/N=C/c2ccccc2F)o1	65	13	48	10	12
O=c1oc2ccccc2cc1-c1nnc(/N=C/c2ccc([N+](=O)[O-])cc2)o1	–	–	64	12	17
O=c1oc2ccccc2cc1-c1nnc(/N=C/c2cccc(F)c2)o1	55	11	48	10	12
O=c1oc2ccccc2cc1-c1nnc(/N=C/c2ccccc2)o1	60	12	80	20	20
O=c1oc2ccccc2cc1-c1nnc(/N=C/c2cccc(Cl)c2)o1	70	14	–	17	–
O=c1oc2ccccc2cc1-c1nnc(/N=C/c2ccc(Cl)cc2)o1	75	15	–	17	–
O=c1oc2ccccc2cc1-c1nnc(/N=C/c2ccccc2Cl)o1	65	13	–	17	–
O=c1oc2ccccc2cc1-c1nnc(/N=C/c2ccc(F)cc2)o1	50	10	48	15	12
COc1ccc(/C=N/c2nnc(-c3cc4ccccc4oc3=O)o2)cc1	60	12	56	10	14
CN(C)c1ccc(/C=N/c2nnc(-c3cc4ccccc4oc3=O)o2)cc1	80	16	48	12	12
O=c1oc2ccccc2cc1-c1nnc(/N=C/c2ccccc2[N+](=O)[O-])o1	–	–	64	14	17
O=c1oc2ccccc2cc1-c1nnc(/N=C/c2cccc(O)c2)o1	55	11	40	15	10
O=c1oc2ccccc2cc1-c1nnc(/N=C/c2ccccc2O)o1	50	10	40	12	10
COc1ccc(/C=N/c2nnc(-c3cc4ccccc4oc3=O)o2)cc1OC	50	10	48	10	12
O=c1oc2ccccc2cc1-c1nnc(/N=C/c2ccc(O)cc2)o1	45	9	40	10	10
O=c1oc2ccccc2cc1-c1nnc(/N=C/c2cccc([N+](=O)[O-])c2)o1	–	–	64	12	17
O=C(O)c1cn(C2CC2)c2cc(N3CCNCC3)c(F)cc2c1=O [CIPROFLOXACIN]	–	–	100	–	25
CC(=O)N1CCN(c2ccc(OCC3COC(Cn4ccnc4)(c4ccc(Cl)cc4Cl)O3)cc2)CC1 (configuration not stated) [KETOCONAZOLE]	100	20	–	–	–

— ChEMBL document CHEMBL3044859, “Antimicrobial activity of Schiff bases of coumarin-incorporated 1,3,4-oxadiazole derivatives: an in vitro evaluation” (2013)
